Several values for one entry are separate records, joined by “and”; a condition that tells them apart may be missing. Equal values may be shown once. Read-outs that look alike come from different tables or passages of the source.
Key:
Assay in all cases: Inside-out patch-clamp inhibition of CFTR current by Inh-172
Assay type in all cases: cell-based
K95A-CFTR = biological target: T1, K95A-CFTR (Homo sapiens, UniProt P13569, K95A)
T1 construct: expressed in transfected cells; host or cells: CHO cells, pcDNA plasmid

[1] = biological target: T2, p-hTM8-p-CFTR (pig CFTR, three TM8 amino acids replaced with human's) (Sus scrofa, UniProt Q6PQZ2, G926T/L930M/L932F)
T2 construct: expressed in transfected cells; host or cells: CHO cells, pcDNA plasmid

[2] = biological target: T3, p-hTMD2-p-CFTR (pig CFTR with human CFTR's TMD2) (Sus scrofa, UniProt Q6PQZ2, A1172T/A789T/A900R/A913S/C878S/C883W/D1186N/D1223E/D816E/DEL1175-1175/F1181T/G899S/G926T/H1036Q/I1057V/I806L/K1013Q/K886G/K887N/K898H/L1018V/L1029M/L930M/L932F/M795V/N1178T/P890L/Q1176K/Q1198S/R1179K/R831K/R951H/S1010A/S1184Y/S783N/S889P/T1129R/T790A/T843A/V1006I/V1222T/V1228I/V798A/V838M/V854I/V870I/V983I)
T3 construct: expressed in transfected cells; host or cells: CHO cells, pcDNA plasmid

T1142I-CFTR = biological target: T4, T1142I-CFTR (Homo sapiens, UniProt P13569, T1142I); conditions: for inhibition at 0.1 µM: 100 nM Inh-172; for inhibition at 0.5 µM: 500 nM Inh-172; for inhibition at 1 µM: 1000 nM Inh-172; for inhibition at 5 µM: 5000 nM Inh-172; for inhibition at 10 µM: 10000 nM Inh-172
T4 construct: expressed in transfected cells; host or cells: CHO cells, pcDNA plasmid

[3] = 100 nM Inh-172, read-out: percent inhibition of current, Mean
[4] = 500 nM Inh-172, read-out: percent inhibition of current, Mean
[5] = 1000 nM Inh-172, read-out: percent inhibition of current, Mean
[6] = 1000 nM Inh-172, read-out: percent inhibition of current, individual cell
[7] = 5000 nM Inh-172, read-out: percent inhibition of current, Mean
[8] = 5000 nM Inh-172, read-out: percent inhibition of current, individual cell
[9] = 10000 nM Inh-172, read-out: percent inhibition of current, Mean
[10] = 10000 nM Inh-172, read-out: percent inhibition of current, individual cell
[11] = 100 nM Inh-172, read-out: percent inhibition of current, individual cell
[12] = read-out: percent inhibition of current, Mean
[13] = read-out: percent inhibition of current, individual cell

T3 sequence (Q6PQZ2 with tags, fused parts or gaps with the stated changes): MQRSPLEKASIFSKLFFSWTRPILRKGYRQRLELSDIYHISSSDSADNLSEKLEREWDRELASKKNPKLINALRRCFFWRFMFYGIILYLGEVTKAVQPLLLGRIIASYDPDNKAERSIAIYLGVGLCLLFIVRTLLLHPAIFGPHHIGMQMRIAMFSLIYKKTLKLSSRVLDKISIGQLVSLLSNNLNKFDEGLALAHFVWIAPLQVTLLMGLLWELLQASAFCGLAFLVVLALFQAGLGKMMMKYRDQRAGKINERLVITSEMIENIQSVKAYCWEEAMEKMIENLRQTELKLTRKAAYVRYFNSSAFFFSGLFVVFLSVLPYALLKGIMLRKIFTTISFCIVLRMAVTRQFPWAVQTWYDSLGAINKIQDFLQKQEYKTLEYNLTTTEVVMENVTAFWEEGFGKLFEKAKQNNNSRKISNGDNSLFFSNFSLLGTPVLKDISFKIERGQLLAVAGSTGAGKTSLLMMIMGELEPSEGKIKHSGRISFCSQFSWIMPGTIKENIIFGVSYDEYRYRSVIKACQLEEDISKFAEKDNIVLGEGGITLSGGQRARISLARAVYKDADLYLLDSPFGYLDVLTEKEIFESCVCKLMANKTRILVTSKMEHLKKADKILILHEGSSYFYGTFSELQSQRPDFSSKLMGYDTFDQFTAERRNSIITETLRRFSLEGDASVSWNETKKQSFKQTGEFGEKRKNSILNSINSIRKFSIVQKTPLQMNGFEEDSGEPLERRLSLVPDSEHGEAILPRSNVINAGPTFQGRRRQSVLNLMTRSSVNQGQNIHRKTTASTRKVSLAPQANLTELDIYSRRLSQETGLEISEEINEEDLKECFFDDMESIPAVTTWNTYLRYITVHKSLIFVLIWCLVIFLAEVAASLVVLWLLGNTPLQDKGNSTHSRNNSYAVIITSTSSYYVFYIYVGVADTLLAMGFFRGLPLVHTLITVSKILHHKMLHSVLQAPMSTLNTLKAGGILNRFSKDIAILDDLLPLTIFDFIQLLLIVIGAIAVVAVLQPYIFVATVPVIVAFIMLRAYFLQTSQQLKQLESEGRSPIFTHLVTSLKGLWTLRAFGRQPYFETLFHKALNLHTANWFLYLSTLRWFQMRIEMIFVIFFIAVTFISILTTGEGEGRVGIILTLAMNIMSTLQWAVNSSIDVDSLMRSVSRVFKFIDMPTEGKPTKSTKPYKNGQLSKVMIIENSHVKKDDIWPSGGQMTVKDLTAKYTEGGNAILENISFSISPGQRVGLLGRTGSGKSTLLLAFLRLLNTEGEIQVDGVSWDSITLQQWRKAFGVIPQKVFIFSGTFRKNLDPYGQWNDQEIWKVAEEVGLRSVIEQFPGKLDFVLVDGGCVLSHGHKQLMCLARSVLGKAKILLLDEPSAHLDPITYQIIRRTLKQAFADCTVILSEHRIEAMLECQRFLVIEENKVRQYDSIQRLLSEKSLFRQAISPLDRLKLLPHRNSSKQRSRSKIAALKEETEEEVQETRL
T2 sequence (Q6PQZ2 whole entry G926T/L930M/L932F): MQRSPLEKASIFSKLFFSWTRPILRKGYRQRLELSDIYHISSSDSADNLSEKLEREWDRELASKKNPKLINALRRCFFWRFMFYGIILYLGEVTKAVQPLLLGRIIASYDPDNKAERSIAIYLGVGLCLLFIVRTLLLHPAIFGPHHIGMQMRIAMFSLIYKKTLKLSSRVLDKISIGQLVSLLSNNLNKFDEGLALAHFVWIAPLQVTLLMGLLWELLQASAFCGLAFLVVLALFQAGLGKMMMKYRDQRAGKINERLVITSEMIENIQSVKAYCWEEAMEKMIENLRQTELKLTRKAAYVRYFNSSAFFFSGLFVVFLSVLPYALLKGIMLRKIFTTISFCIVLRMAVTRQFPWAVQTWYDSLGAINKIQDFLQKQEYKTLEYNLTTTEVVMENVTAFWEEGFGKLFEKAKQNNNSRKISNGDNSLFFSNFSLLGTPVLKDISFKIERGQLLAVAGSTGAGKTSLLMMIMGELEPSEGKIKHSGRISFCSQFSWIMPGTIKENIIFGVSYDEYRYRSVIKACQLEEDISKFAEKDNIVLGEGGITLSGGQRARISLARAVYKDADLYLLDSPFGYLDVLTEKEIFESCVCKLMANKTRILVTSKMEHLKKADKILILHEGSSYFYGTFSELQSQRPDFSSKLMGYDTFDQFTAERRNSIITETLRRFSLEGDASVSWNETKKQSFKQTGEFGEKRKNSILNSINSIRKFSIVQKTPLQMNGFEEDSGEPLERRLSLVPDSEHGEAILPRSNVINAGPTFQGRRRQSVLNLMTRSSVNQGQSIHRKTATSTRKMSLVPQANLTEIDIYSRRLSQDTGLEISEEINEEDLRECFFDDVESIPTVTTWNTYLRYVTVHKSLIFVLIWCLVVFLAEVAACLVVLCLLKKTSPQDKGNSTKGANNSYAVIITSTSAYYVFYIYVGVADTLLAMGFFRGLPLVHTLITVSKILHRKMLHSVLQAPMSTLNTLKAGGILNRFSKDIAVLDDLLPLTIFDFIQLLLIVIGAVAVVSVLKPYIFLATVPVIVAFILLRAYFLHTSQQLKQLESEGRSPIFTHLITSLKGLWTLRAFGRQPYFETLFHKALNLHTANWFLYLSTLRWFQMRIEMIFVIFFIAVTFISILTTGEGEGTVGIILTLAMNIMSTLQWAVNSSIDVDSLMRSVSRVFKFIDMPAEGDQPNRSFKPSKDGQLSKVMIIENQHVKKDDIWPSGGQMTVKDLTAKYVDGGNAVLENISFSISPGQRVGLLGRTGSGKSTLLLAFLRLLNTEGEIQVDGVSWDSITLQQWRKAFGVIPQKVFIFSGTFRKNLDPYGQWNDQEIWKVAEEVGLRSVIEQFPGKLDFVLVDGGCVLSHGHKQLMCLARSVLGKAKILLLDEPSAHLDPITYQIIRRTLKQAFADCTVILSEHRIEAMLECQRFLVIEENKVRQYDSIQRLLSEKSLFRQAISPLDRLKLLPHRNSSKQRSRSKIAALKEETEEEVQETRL
T1 sequence (P13569 whole entry K95A): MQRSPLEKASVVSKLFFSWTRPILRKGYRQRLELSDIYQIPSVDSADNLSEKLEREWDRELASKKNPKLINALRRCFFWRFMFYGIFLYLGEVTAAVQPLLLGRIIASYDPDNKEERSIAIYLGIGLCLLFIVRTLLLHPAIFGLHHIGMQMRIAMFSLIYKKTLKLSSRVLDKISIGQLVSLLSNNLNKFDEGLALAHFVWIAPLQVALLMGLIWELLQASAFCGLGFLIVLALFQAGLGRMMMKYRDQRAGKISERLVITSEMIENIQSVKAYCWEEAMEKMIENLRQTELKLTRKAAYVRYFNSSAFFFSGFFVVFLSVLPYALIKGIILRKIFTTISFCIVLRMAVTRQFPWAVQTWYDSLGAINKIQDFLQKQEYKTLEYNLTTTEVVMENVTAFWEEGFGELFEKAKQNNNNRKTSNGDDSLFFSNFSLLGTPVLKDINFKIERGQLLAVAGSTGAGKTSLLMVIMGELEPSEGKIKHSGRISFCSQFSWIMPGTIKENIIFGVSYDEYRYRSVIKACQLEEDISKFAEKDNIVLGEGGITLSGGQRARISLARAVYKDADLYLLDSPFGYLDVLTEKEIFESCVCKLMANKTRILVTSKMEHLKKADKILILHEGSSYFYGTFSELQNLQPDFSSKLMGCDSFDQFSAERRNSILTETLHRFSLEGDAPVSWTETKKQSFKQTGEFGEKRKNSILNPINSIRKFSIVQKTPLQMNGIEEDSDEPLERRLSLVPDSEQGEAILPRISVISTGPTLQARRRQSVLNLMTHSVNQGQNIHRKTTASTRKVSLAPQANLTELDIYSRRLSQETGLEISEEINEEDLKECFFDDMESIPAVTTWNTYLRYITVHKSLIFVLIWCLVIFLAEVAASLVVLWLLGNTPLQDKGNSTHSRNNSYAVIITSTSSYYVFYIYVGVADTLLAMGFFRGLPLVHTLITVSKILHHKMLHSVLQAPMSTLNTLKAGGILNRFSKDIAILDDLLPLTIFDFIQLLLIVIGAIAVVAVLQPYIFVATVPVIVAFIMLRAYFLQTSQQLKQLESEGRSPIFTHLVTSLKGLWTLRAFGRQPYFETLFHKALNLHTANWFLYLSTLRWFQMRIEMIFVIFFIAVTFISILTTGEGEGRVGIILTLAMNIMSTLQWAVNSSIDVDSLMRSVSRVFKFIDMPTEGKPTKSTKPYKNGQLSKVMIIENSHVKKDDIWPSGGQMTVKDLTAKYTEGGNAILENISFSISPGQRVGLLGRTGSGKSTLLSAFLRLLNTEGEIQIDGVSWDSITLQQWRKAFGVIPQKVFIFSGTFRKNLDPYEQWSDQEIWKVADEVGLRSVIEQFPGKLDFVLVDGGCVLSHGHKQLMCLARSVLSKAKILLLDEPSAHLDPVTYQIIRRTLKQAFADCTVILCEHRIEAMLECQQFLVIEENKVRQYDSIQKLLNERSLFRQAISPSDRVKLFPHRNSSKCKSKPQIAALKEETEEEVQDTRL
T4 sequence (P13569 whole entry T1142I): as the sequence (P13569 whole entry K95A) above, with A95K, T1142I counted along it

With `O=C(O)c1ccc(/C=C2\SC(=S)N(c3cccc(C(F)(F)F)c3)C2=O)cc1` [Inh-172, CFTRinh-172] the “percent inhibition of current, individual cell” value (“percent inhibition of current” for short) (K95A-CFTR; 100 nM Inh-172) was 10.0 and 13.0 and 19.0 and 9.0 and 7.0 and 15.0, the inhibition at 0.1 µM (K95A-CFTR; [3]) was 12.2% and the inhibition at 0.5 µM (K95A-CFTR; 0.5 µM Inh-172, read-out: K95A-CFTR current inhibited) was ~40%. The “percent inhibition of current” value (K95A-CFTR; 500 nM Inh-172) was 23.0 and 38.0 and 46.0 and 31.0 and 29.0 and 42.0, the inhibition at 0.5 µM (K95A-CFTR; [4]) was 34.8% and the “percent inhibition of current” value (K95A-CFTR; 1000 nM Inh-172) was 58.0 and 62.0 and 47.0 and 59.0. For the same compound, the inhibition at 1 µM (K95A-CFTR; [5]) was 55.8%, the inhibition at 1 µM (K95A-CFTR; [6]) was 51% and the “percent inhibition of current” value (K95A-CFTR; 5000 nM Inh-172) was 88.0 and 84.0 and 81.0 and 85.0. The inhibition at 5 µM (K95A-CFTR; [7]) was 84.2%, the inhibition at 5 µM (K95A-CFTR; [8]) was 78% and the “percent inhibition of current” value (K95A-CFTR; 10000 nM Inh-172) was 95.0 and 94.0 and 93.0 and 90.0. The inhibition at 10 µM (K95A-CFTR; [9]) was 92.3%, the inhibition at 10 µM (K95A-CFTR; [10]) was 89% and the “Hill Coefficient” value (K95A-CFTR; K95A) was 0.98 ± 0.05. The IC50 (K95A-CFTR; K95A) was 850 ± 50 nM, the IC50 (K95A-CFTR; K95A, earlier manuscript version, peer review file) was 852 nM and the “increase of IC50 by K95A mutation vs WT” value (K95A-CFTR; cho cells inside-out patch) was 10 fold. For the same compound, the “percent inhibition of current” value ([1]; 25 nM Inh-172) was 0 and 3, the inhibition at 0.025 µM ([1]; 25 nM Inh-172, read-out: percent inhibition of current, Mean) was 1% and the “percent inhibition of current” value ([1]; 100 nM Inh-172) was 18 and 20 and 14 and 17. For the same compound, the inhibition at 0.1 µM [1, 3] was 16.4%, the inhibition at 0.1 µM [1, 11] was 13% and the “percent inhibition of current” value ([1]; 500 nM Inh-172) was 63 and 60 and 56 and 33 and 23. The inhibition at 0.5 µM [1, 4] was 47%, the “percent inhibition of current” value ([1]; 1000 nM Inh-172) was 53 and 44 and 63 and the inhibition at 1 µM [1, 5] was 54%. For the same compound, the inhibition at 1 µM [1, 6] was 57%, the “percent inhibition of current” value ([1]; 10000 nM Inh-172) was 82 and 85 and the inhibition at 10 µM [1, 9] was 89%. For the same compound, the inhibition at 10 µM [1, 10] was 100%, the “Hill Coefficient” value ([1]; p-hTM8-p) was 0.84 ± 0.10 and the IC50 ([1]; p-hTM8-p) was 720 ± 90 nM. For the same compound, the “percent inhibition of current” value ([2]; 50 nM Inh-172) was 48.0 and 39.0, the inhibition at 0.05 µM ([2]; 50 nM Inh-172, read-out: percent inhibition of current, Mean) was 46.3% and the inhibition at 0.05 µM ([2]; 50 nM Inh-172, read-out: percent inhibition of current, individual cell) was 52%. The “percent inhibition of current” value ([2]; 100 nM Inh-172) was 60.0 and 64.0 and 67.0 and 62.0 and 55.0, the inhibition at 0.1 µM [2, 3] was 63.6% and the inhibition at 0.1 µM [2, 11] was 75%. The “percent inhibition of current” value ([2]; 500 nM Inh-172) was 71.0 and 78.0 and 69.0 and 61.0, the inhibition at 0.5 µM [2, 4] was 72% and the inhibition at 0.5 µM ([2]; 500 nM Inh-172, read-out: percent inhibition of current, individual cell) was 81%. For the same compound, the “percent inhibition of current” value ([2]; 1000 nM Inh-172) was 84.0, the inhibition at 1 µM [2, 5] was 79.8% and the inhibition at 1 µM [2, 6] was 85%. The “percent inhibition of current” value ([2]; 5000 nM Inh-172) was 97.0 and 95.0, the inhibition at 5 µM [2, 7] was 96% and the inhibition at 5 µM [2, 8] was 96%. For the same compound, the “percent inhibition of current” value ([2]; 10000 nM Inh-172) was 98.0 and 100.0 and 90.0 and 93.0 and 91.0, the inhibition at 10 µM [2, 9] was 95.6% and the inhibition at 10 µM [2, 10] was 99%. For the same compound, the “Hill Coefficient” value ([2]; p-hTMD2-p) was 0.54 ± 0.08, the IC50 ([2]; p-hTMD2-p) was 60 ± 20 nM and the IC50 ([2]; pig CFTR with human TMD2, earlier manuscript version, peer review file) was 55 nM. The inhibition at 0.1 µM (T1142I-CFTR; [12]) was 7.2%, the inhibition at 0.1 µM (T1142I-CFTR; [13]) was 5% and the inhibition at 0.5 µM (T1142I-CFTR; [12]) was 22.5%. The inhibition at 0.5 µM (T1142I-CFTR; [13]) was 22%, the inhibition at 1 µM (T1142I-CFTR; [12]) was 39.3% and the inhibition at 1 µM (T1142I-CFTR; [13]) was 38%. For the same compound, the inhibition at 5 µM (T1142I-CFTR; [12]) was 78.3%, the inhibition at 5 µM (T1142I-CFTR; [13]) was 78% and the inhibition at 10 µM (T1142I-CFTR; [12]) was 90.7%. The inhibition at 10 µM (T1142I-CFTR; [13]) was 90%, the “Hill Coefficient” value (T1142I-CFTR; T1142I) was 1.12 ± 0.05 and the IC50 (T1142I-CFTR; T1142I) was 1490 ± 70 nM.
